We go through 14 compounds from PubChem BioAssay AID248 (DTP/NCI, 2004).

The test relates to L1210 leukemia ip in BDF1 mice, survival T/C. Nature of the test: NCI In Vivo Anticancer Drug Screen. Data for tumor model L1210 Leukemia (intraperitoneal) in B6D2F1 (BDF1) mice. The settings on record: endpoint: mean survival time, higher = longer survival. In a few lines:
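Read-out is survival time, reported as the treated-group measurement over the vehicle-control measurement.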

[1] abbreviates: dose: 100.0 mg/kg/injection, schedule: Q04DX003 (ip), vehicle: saline.
The mark [2] stands for this setting: dose: 200.0 mg/kg/injection, schedule: Q04DX003 (ip), vehicle: saline.
Where [3] appears, read: dose: 100.0 mg/kg/injection, schedule: Q01DX009 (ip), vehicle: Klucel (hydroxypropylcellulose) (HPC).
[4] abbreviates: dose: 100.0 mg/kg/injection, schedule: Q04DX003 (ip), vehicle: Klucel (hydroxypropylcellulose) (HPC).
Setting [5] is: dose: 200.0 mg/kg/injection, schedule: Q01DX009 (ip), vehicle: Klucel (hydroxypropylcellulose) (HPC).
The mark [6] stands for this setting: dose: 200.0 mg/kg/injection, schedule: Q04DX003 (ip), vehicle: Klucel (hydroxypropylcellulose) (HPC).
[7] abbreviates: dose: 400.0 mg/kg/injection, schedule: Q04DX003 (ip), vehicle: Klucel (hydroxypropylcellulose) (HPC).
[8] abbreviates: dose: 100.0 mg/kg/injection, schedule: Q01DX009 (ip), vehicle: saline with Tween-80.
[9] abbreviates: dose: 200.0 mg/kg/injection, schedule: Q01DX009 (ip), vehicle: saline with Tween-80.
Where [10] appears, read: dose: 100.0 mg/kg/injection, schedule: Q04DX002 (ip), vehicle: saline with Tween-80.
The mark [11] stands for this setting: dose: 200.0 mg/kg/injection, schedule: Q04DX002 (ip), vehicle: saline with Tween-80.
[12] abbreviates: dose: 400.0 mg/kg/injection, schedule: Q04DX002 (ip), vehicle: saline with Tween-80.

Each structure is given as a SMILES string. “And” between values parts separate entries of the source, which are not always exact repeats. Equal values may be shown once. Inconclusive results and toxic doses are left out.

For `CSc1sc2ccccc2[n+]1C`, the T/C is, setting by setting: (dose: 25.0 mg/kg/injection, schedule: Q01DX009 (ip), vehicle: saline) 102 % of control; (dose: 50.0 mg/kg/injection, schedule: Q01DX009 (ip), vehicle: saline) 96 % of control and 108 % of control; under setting [1], 97 % of control; under setting [2], 113 % of control.
In the case of `COc1cc(N(CCCl)CCCl)ccc1C=Nc1ccccc1C(=O)O`, the T/C reads like this: (dose: 2.3 mg/kg/injection, schedule: Q01DX015 (ip), vehicle: carboxymethylcellulose (CMC)) 117 % of control; (dose: 5.0 mg/kg/injection, schedule: Q01DX001 (ip), vehicle: carboxymethylcellulose (CMC)) 121 % of control; (dose: 5.3 mg/kg/injection, schedule: Q01DX015 (ip), vehicle: carboxymethylcellulose (CMC)) 122 % of control; (dose: 10.0 mg/kg/injection, schedule: Q01DX015 (ip), vehicle: carboxymethylcellulose (CMC)) 154 % of control; (dose: 15.0 mg/kg/injection, schedule: Q01DX015 (ip), vehicle: carboxymethylcellulose (CMC)) 119 % of control; (dose: 16.0 mg/kg/injection, schedule: Q01DX015 (ip), vehicle: carboxymethylcellulose (CMC)) 123 % of control. The T/C is 162 % of control (dose: 20.0 mg/kg/injection, schedule: Q01DX001 (ip), vehicle: carboxymethylcellulose (CMC)); 150 % of control (dose: 22.0 mg/kg/injection, schedule: Q01DX001 (ip), vehicle: carboxymethylcellulose (CMC)); 164 % of control (dose: 33.0 mg/kg/injection, schedule: Q01DX001 (ip), vehicle: carboxymethylcellulose (CMC)); 100 % of control (dose: 50.0 mg/kg/injection, schedule: Q01DX001 (ip), vehicle: carboxymethylcellulose (CMC)).
In the case of `CN=C(NC)c1ccc(NC(=O)/C=C\c2ccc(/C=C/C(=O)Nc3ccc(C(=NC)NC)cc3)cc2)cc1`, the T/C (dose: 7.5 mg/kg/injection, schedule: Q01DX Z (oral), vehicle: saline) was 95 % of control; the T/C (dose: 15.0 mg/kg/injection, schedule: Q01DX Z (oral), vehicle: saline) was 91 % of control; the T/C (dose: 30.0 mg/kg/injection, schedule: Q01DX Z (oral), vehicle: saline) is 95 % of control; the T/C (dose: 60.0 mg/kg/injection, schedule: Q01DX Z (oral), vehicle: saline) was 103 % of control.
Turning to `CCCCCCCCCCCCCCCCCCNC(=O)Nc1cccc(C)c1C`, the T/C under setting [3] is 92 % of control; the T/C under setting [4] was 87 % of control; the T/C under setting [5] is 89 % of control; the T/C under setting [6] is 92 % of control; the T/C (dose: 400.0 mg/kg/injection, schedule: Q01DX009 (ip), vehicle: Klucel (hydroxypropylcellulose) (HPC)) was 94 % of control; the T/C under setting [7] is 88 % of control.
Consider `CCOC(=O)C(CC)C(O)c1cccc(OC)c1` (stereo not given), for which the T/C was 94 % of control (dose: 50.0 mg/kg/injection, schedule: Q01DX009 (ip), vehicle: saline with Tween-80); 94 % of control under setting [8]; 94 % of control under setting [9].
In the case of `O=C(O)c1c(F)c(F)c(-c2c(F)c(F)c(F)c(F)c2F)c(F)c1F`, the T/C (dose: 100.0 mg/kg/injection, schedule: Q01DX001 (ip), vehicle: saline with Tween-80) is 86 % of control and the T/C (dose: 200.0 mg/kg/injection, schedule: Q01DX001 (ip), vehicle: saline with Tween-80) was 91 % of control.
Turning to `Nc1ncnc2c1ncn2C1CC(CO)C(O)C1O` (stereo not given), the T/C by setting is: (dose: 2.0 mg/kg/injection, schedule: Q01DX015 (ip), vehicle: Klucel (hydroxypropylcellulose) (HPC)) 114 % of control; (dose: 3.0 mg/kg/injection, schedule: Q01DX015 (ip), vehicle: Klucel (hydroxypropylcellulose) (HPC)) 91 % of control; (dose: 4.4 mg/kg/injection, schedule: Q01DX015 (ip), vehicle: Klucel (hydroxypropylcellulose) (HPC)) 93 % of control; (dose: 6.25 mg/kg/injection, schedule: Q01DX009 (ip), vehicle: carboxymethylcellulose (CMC)) 98 % of control; (dose: 6.7 mg/kg/injection, schedule: Q01DX015 (ip), vehicle: Klucel (hydroxypropylcellulose) (HPC)) 96 % of control; (dose: 10.0 mg/kg/injection, schedule: Q01DX015 (ip), vehicle: Klucel (hydroxypropylcellulose) (HPC)) 97 % of control. In addition, the T/C is, setting by setting: (dose: 12.5 mg/kg/injection, schedule: Q01DX009 (ip), vehicle: carboxymethylcellulose (CMC)) 97 % of control; (dose: 15.0 mg/kg/injection, schedule: Q01DX015 (ip), vehicle: Klucel (hydroxypropylcellulose) (HPC)) 98 % of control; (dose: 25.0 mg/kg/injection, schedule: Q01DX009 (ip), vehicle: carboxymethylcellulose (CMC)) 89 % of control; (dose: 50.0 mg/kg/injection, schedule: Q01DX001 (ip), vehicle: saline) 93 % of control; (dose: 100.0 mg/kg/injection, schedule: Q01DX001 (ip), vehicle: saline) 102 % of control; (dose: 200.0 mg/kg/injection, schedule: Q01DX001 (ip), vehicle: saline) 91 % of control. Moreover, under “dose: 400.0 mg/kg/injection, schedule: Q01DX001 (ip), vehicle: saline”, the T/C is 88 % of control.
Regarding `C/C=C(\CC)C(=O)O.[Pb]`, the T/C is 97 % of control (dose: 50.0 mg/kg/injection, schedule: Q04DX002 (ip), vehicle: saline with Tween-80); 96 % of control and 119 % of control under setting [10]; 100 % of control under setting [11]; 92 % of control under setting [12].
Regarding `OCC1OC(c2[nH]nc3c(Cl)ncnc23)C(O)C1O` (stereo not given), the T/C was 108 % of control (dose: 100.0 mg/kg/injection, schedule: Q01DX005 (ip), vehicle: saline) and 120 % of control (dose: 200.0 mg/kg/injection, schedule: Q01DX005 (ip), vehicle: saline).
In the case of `Cn1ccc(=O)[nH]c1=O`, the T/C by setting is: under setting [4], 96 % of control; under setting [6], 89 % of control; under setting [7], 115 % of control.
Take `N#C/C=C/c1cccc([N+](=O)[O-])c1`: the T/C was 102 % of control under setting [8]; 93 % of control under setting [9]; 98 % of control (dose: 400.0 mg/kg/injection, schedule: Q01DX009 (ip), vehicle: saline with Tween-80).
As for `O=C(NNc1ccccc1)c1ccccc1`, the T/C is 101 % of control (dose: 50.0 mg/kg/injection, schedule: Q01DX009 (ip), vehicle: Klucel (hydroxypropylcellulose) (HPC)); 101 % of control under setting [3]; 94 % of control under setting [4]; 100 % of control under setting [1]; 110 % of control under setting [5]; 107 % of control under setting [6]. In addition, the T/C reads like this: under setting [2], 103 % of control; under setting [7], 100 % of control; (dose: 400.0 mg/kg/injection, schedule: Q04DX003 (ip), vehicle: saline) 93 % of control.
For the compound `COC(=O)c1ccccc1N(C)C(=O)c1cc(OC)c(OC)c(OC)c1`, the T/C is 108 % of control under setting [10], 94 % of control under setting [11] and 91 % of control under setting [12].
With `[Br][Bi]([Br])([c]1ccccc1)([c]1ccccc1)[c]1ccccc1`, the T/C is, setting by setting: (dose: 12.5 mg/kg/injection, schedule: Q04DX002 (ip), vehicle: Klucel (hydroxypropylcellulose) (HPC)) 97 % of control; (dose: 25.0 mg/kg/injection, schedule: Q04DX002 (ip), vehicle: Klucel (hydroxypropylcellulose) (HPC)) 101 % of control; (dose: 50.0 mg/kg/injection, schedule: Q04DX002 (ip), vehicle: Klucel (hydroxypropylcellulose) (HPC)) 104 % of control; (dose: 100.0 mg/kg/injection, schedule: Q04DX002 (ip), vehicle: Klucel (hydroxypropylcellulose) (HPC)) 97 % of control.
